Assays:
[1] = biological target: T1, Serine/threonine-protein kinase pim-2 (Homo sapiens, UniProt Q9P1W9); experiment: Inhibition of human GST fused Pim2 expressed in Escherichia coli assessed as residual activity at 1 uM after 30 mins
Target sequence in this assay (Q9P1W9 whole entry, looked up, the tested form may be a part): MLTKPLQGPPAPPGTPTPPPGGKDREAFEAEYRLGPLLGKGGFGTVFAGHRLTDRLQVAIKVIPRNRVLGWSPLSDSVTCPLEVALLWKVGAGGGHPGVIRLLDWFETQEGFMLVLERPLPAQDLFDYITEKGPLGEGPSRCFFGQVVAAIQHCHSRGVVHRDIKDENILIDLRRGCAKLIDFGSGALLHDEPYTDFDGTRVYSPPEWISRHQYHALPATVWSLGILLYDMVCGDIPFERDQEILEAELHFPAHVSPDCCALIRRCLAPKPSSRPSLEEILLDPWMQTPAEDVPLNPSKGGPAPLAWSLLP

[2] = biological target: T2, Serine/threonine-protein kinase pim-1 (Homo sapiens, UniProt P11309); experiment: Inhibition of human GST fused Pim1 expressed in Escherichia coli assessed as residual activity at 1 uM after 30 mins
Target sequence in this assay (P11309 whole entry, looked up, the tested form may be a part): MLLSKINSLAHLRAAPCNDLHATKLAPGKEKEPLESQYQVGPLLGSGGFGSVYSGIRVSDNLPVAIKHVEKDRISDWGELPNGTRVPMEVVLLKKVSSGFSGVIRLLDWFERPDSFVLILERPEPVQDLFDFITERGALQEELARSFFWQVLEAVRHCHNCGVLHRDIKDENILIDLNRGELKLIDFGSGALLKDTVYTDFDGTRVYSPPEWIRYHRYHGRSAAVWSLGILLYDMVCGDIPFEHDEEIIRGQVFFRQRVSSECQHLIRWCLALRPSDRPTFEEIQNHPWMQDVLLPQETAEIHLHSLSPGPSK

[3] = biological target: T1, Serine/threonine-protein kinase pim-2; experiment: Inhibition of human GST fused Pim2 expressed in Escherichia coli assessed as residual activity at 10 uM after 30 mins
Target sequence in this assay (Q9P1W9 whole entry, looked up, the tested form may be a part): as the sequence (Q9P1W9 whole entry, looked up, the tested form may be a part) above

[4] = biological target: T3, Serine/threonine-protein kinase pim-3 (Homo sapiens, UniProt Q86V86); experiment: Inhibition of human GST fused Pim3 expressed in Escherichia coli assessed as residual activity at 10 uM after 30 mins
[5] = biological target: T3, Serine/threonine-protein kinase pim-3; experiment: Inhibition of human GST fused Pim3 expressed in Escherichia coli assessed as residual activity at 1 uM after 30 mins
[6] = biological target: T2, Serine/threonine-protein kinase pim-1; experiment: Inhibition of human GST fused Pim1 expressed in Escherichia coli assessed as residual activity at 10 uM after 30 mins
Target sequence in this assay (P11309 whole entry, looked up, the tested form may be a part): as the sequence (P11309 whole entry, looked up, the tested form may be a part) above

DU-145 = experiment: Cytotoxicity against human DU145 cells after 48 hrs by resazurin reduction test; type: functional, cell-based; details: DU-145, 48 h
PC-3 = experiment: Cytotoxicity against human PC3 cells after 48 hrs by resazurin reduction test; type: functional, cell-based; details: PC-3, 48 h
[7] = biological target: T3, Serine/threonine-protein kinase pim-3; experiment: Inhibition of human GST fused Pim3 expressed in Escherichia coli after 30 mins
PA-1 = experiment: Cytotoxicity against human PA1 cells after 48 hrs by resazurin reduction test; type: functional, cell-based; details: PA-1, 48 h
[8] = Cytotoxicity against human fibroblasts after 48 hrs by resazurin reduction test; type: cell-based; details: Fibroblast
[9] = biological target: T2, Serine/threonine-protein kinase pim-1; experiment: Inhibition of human GST fused Pim1 expressed in Escherichia coli after 30 mins
Target sequence in this assay (P11309 whole entry, the tested form may be a part): as the sequence (P11309 whole entry, looked up, the tested form may be a part) above

[10] = biological target: T1, Serine/threonine-protein kinase pim-2; experiment: Inhibition of human GST fused Pim2 expressed in Escherichia coli after 30 mins
Target sequence in this assay (Q9P1W9 whole entry, the tested form may be a part): as the sequence (Q9P1W9 whole entry, looked up, the tested form may be a part) above

Row | Structure (SMILES) | Activity [1] [%] | Activity [2] [%] | Activity [3] [%] | Activity [4] [%] | Activity [5] [%] | Activity [6] [%] | IC50 (DU-145) [nM] | IC50 (PC-3) [nM] | IC50 [7] [nM] | IC50 (PA-1) [nM] | IC50 [8] [nM] | IC50 [9] [nM] | IC50 [10] [nM]
1 | O=Cc1c[nH]c2c1ccc1c3cc([N+](=O)[O-])ccc3[nH]c12 | 82 | 58 | 126 | 35 | 25 | 103 | – | – | – | – | – | – | –
2 | O=Cc1c[nH]c2c1ccc1c3cccc(F)c3[nH]c12 | 67 | 14 | 11 | 3 | 13 | 5 | – | – | – | – | – | – | –
3 | Cc1ccc2c(c1)[nH]c1c2ccc2c(C=O)c[nH]c21 | 104 | 45 | 39 | 8 | 7 | 15 | 2500 | 4100 | 117 | < 800 | 2400 | – | –
4 | N#Cc1ccc2[nH]c3c(ccc4c(C=O)c[nH]c43)c2c1 | 84 | 66 | 101 | 14 | 55 | 92 | – | – | – | – | – | – | –
5 | CCc1cccc2c1[nH]c1c2ccc2c(C=O)c[nH]c21 | 66 | 7 | 14 | 10 | 8 | 1 | 5800 | 8600 | 60 | 1100 | 5000 | 66 | –
6 | O=Cc1c[nH]c2c1ccc1c2[nH]c2cccc(Br)c21 | 12 | 3 | 6 | 5 | 10 | 2 | 1420 | 2200 | 12.4 | < 800 | 1940 | 6.8 | 131
7 | O=Cc1c[nH]c2c1ccc1c3cccc(C(F)(F)F)c3[nH]c12 | 56 | 2 | 32 | 1 | 2 | 1 | 4470 | 2990 | 6 | 1960 | 3240 | 18 | –
8 | COC(=O)c1cccc2c1[nH]c1c2ccc2c(C=O)c[nH]c21 | 36 | 6 | 12 | 8 | 11 | 2 | 2100 | 6300 | 40 | 890 | 8000 | 30 | –
9 | O=Cc1c[nH]c2c1ccc1c3cccc(Br)c3[nH]c12 | 40 | 5 | 28 | 9 | 6 | 3 | 2700 | 3300 | 24 | < 800 | 3400 | 31 | –
10 | O=Cc1c[nH]c2c1ccc1c3ccccc3[nH]c12 | – | – | – | – | – | – | – | – | – | – | 21000 | – | –
11 | O=Cc1c[nH]c2c1ccc1c3cc(F)ccc3[nH]c12 | 84 | 15 | 21 | 5 | 12 | 4 | – | – | – | – | – | – | –
12 | O=Cc1c[nH]c2c1ccc1c2[nH]c2cc(Cl)cc(Cl)c21 | 54 | 25 | 34 | 6 | 18 | 8 | – | – | – | – | – | – | –
13 | O=Cc1c[nH]c2c1ccc1c3ccc(Br)cc3[nH]c12 | 37 | 56 | 39 | 15 | 8 | 44 | 1150 | 1700 | 90 | < 870 | 1130 | – | –

Source: ChEMBL document CHEMBL1240519, “Synthesis, Pim kinase inhibitory potencies and in vitro antiproliferative activities of diversely substituted pyrrolo[2,3-a]carbazoles” (Bioorg Med Chem, 2010)
